# Assay results reported in US9469598B2, “Erythropoietin production-promoting agent” (SBI Pharmaceuticals Co., Ltd., priority 2011, dated 2016).
# Where a name gives a salt, the structure may show the parent alone.
# Tested on: HEP3B cells
# Test: Erythropoietin production by HEP3B cells with reduced erythropoietin production ability (ELISA of culture supernatant)
# Type: cell-based, human
# Settings: 1% oxygen, 24 h
# Text: Erythropoietin production ability of erythropoietin producer cells were reduced by culturing the erythropoietin producer cells under hypoxic condition to allow artificial production of erythropoietin, and then adding inflammatory cytokine or uremia toxin.
# TNF-α was employed as the inflammatory cytokine. In addition, indoxyl sulfate was employed as the uremic toxin. Indoxyl sulfate is thought to be the causative substance of uremic toxin, and is also the most commonly used uremia-related marker. Indoxyl sulfate in vivo is also a substance where tryptophan-derived indoles are sulfated and synthesized in the liver. Accordingly, a state of reduced erythropoietin production by addition of inflammatory cytokine or uremic toxin is a state of mimicked renal anemia.
# In this Example, HEP3B cells which are liver cancer cells that produce erythropoietin of Groups I to VI with different culture conditions (from ATCC) were used. First, as a culturing step common to all 6 groups, about 300,000 HEP3B cells per well of a 12-well plate were cultured. The culture condition employed was culturing in RPMI1640 medium supplemented with 10% FCS/PC-SM at 37° C. under 20% oxygen condition. After 24 hours of culture, they were divided into the following culture conditions I to VI, and further cultured for 24 hours. Human recombinant TNF-a (rhTNF-a; Roche) was employed as TNF-α in the following.
# After culturing for 24 hours under the above culture conditions I to VI, the culture supernatant was separated, and the concentration of erythropoietin contained in the culture supernatant was measured with “Human Erythropoietin ELISA kit” (from Bender MedSystems).
compound,measurement,setting,value
"Cl.NCC(=O)CCC(=O)O [aminolevulinic acid hydrochloride, 5-aminolevulinic acid hydrochloride]","erythropoietin concentration in culture supernatant, Group (VI) vs Group (V)","1 mM indoxyl sulfate, 0.3 μM 5-aminolevulinic acid hydrochloride with 0.15 μM sodium ferrous citrate",significantly high erythropoietin concentration value compared to Group (V)
same,"erythropoietin concentration in culture supernatant, Group (IV) vs Group (III)","220 U/ml TNF-α, 0.3 μM 5-aminolevulinic acid hydrochloride with 0.15 μM sodium ferrous citrate",significantly high erythropoietin concentration value compared to Group (III)
O=S(=O)(O)Oc1c[nH]c2ccccc12 [indoxyl sulfate],"erythropoietin concentration in culture supernatant, Group (V) vs Group (I)",1 mM indoxyl sulfate,decrease in the concentration of erythropoietin was observed
TNF-α,"erythropoietin concentration in culture supernatant, Group (III) vs Group (I)",220 U/ml TNF-α,decrease in the concentration of erythropoietin was observed
